Reference: ChEMBL document CHEMBL1275341, “Synthesis and antimalarial activities of rhenium bioorganometallics based on the 4-aminoquinoline structure” (Bioorg Med Chem, 2010)
pIC50: −log10 of the molar value.

How the values were obtained:
[1] = test system: Plasmodium falciparum; assay: Antimalarial activity against chloroquine-susceptible Plasmodium falciparum 3D7 infected in human A+ RBC assessed as inhibition of [3H]hypoxanthine uptake after 48 hrs by scintillation counting; assay type: functional, organism-based
[2] = test system: Plasmodium falciparum; assay: Antimalarial activity against chloroquine-resistant Plasmodium falciparum W2 infected in human A+ erythrocytes assessed as inhibition of [3H]hypoxanthine uptake after 48 hrs by scintillation counting; assay type: functional, organism-based

SMILES | pIC50 [1] | pIC50 [2]
Clc1ccc2c(NCCNCc3cccc4ccccc34)ccnc2c1 | 6.33 | 5.92
Clc1ccc2c(NCCNCc3c4ccccc4cc4ccccc34)ccnc2c1 | 7.08 | 6.10
Clc1ccc2c(NCCNCc3ccc4ccccc4c3)ccnc2c1 | 7.32 | 6.09
